Patent US6407079B1, “Pharmaceutical compositions containing drugs which are instable or sparingly soluble in water and methods for their preparation” (Janssen Pharmaceutica N.V., priority 1985, dated 2002)
In brackets after ≈: the same amount, converted by molar mass. Read-outs that look alike come from different tables or passages of the source.

Legend:
[1] = 24 h
physchem = settings: for solubility at 24 h: 25 °C, thermodynamic from solid; for Ratio S1:S2: 24 h, pH 6.6
[2] = Solubility of drugs in 4% aqueous hydroxypropyl-methyl-β-cyclodextrin solution (Example 2B); settings: in water, 4% hydroxypropyl-methyl-β-cyclodextrin (DS 0.96; MS 0.43)
[3] = German Offenlegungsschrift 31 18 218; cited from earlier work
[4] = Storage stability of indometacin solutions, HPLC (Example 3); assay type: physicochemical; settings: for Indometacin content: 21° C.
Method: In 10 ml phosphate buffer solution 0.7 g hydroxyethyl-β-cyclodextrin (MS 0.43) were dissolved together with 0.04 g indometacin at 25° C. until a clear solution was formed. […] (B). In a parallel test a saturated indometacin solution in a phosphate buffer solution (0.21 mg/ml) was stored under the same conditions (A). The great improved stability of the composition according to the invention is apparent.

[5] = Dissolution rate of medroxyprogesterone acetate from tablet (Example 5); assay type: physicochemical; settings: tablet with hydroxyethyl-β-cyclodextrin (MS 0.43), 5 mg drug per unit dose
Method: In 100 ml water 7 g hydroxyethyl-β-cyclodextrin (MS 0.43) and 0.5 g medroxyprogesterone acetate were dissolved. The water was then evaporated in a rotation evaporator The residue (75 mg) was powdered and after addition of 366 mg calcium hydrogen phosphate.2H2O, 60 mg corn starch, 120 mg cellulose powder (microcrystalline), 4.2 mg highly dispersed silica (AEROSIL® 200) and 4.8 mg magnesium stearate tablets with a weight of 630.0 mg and comprising 5 mg drug per unit dose were made. The dissolution rate of the medroxyprogesterone acetate from this formulation is 21 times higher when compared to a tablet comprising the same inert ingredients without addition of the β-cyclodextrin ether.

rats = assay type: in vivo
Method: The acute intravenous toxicity of some β-cyclodextrins was tested on rats with the following results.

[6] = cited from earlier work
human red blood cells = assay: Haemolytic effect on human red blood cells; assay type: cell-based; settings: 30 minutes at 37° C., optical density at 540 nm
Method: The haemolytic effect of the methylether according to German Offenlegungsschrift 31 18 218 was compared to that of an ether used according to the invention. To this end 100 μl of a physiological sodium chloride solution with a cyclodextrin content of 10%, 800 μl of a buffer (400 mg MOPS, 36 mg Na2HPO4.2H2O, 1,6 g NaCl in 200 ml H2O) and 100 μl of a suspension of human red blood cells (three times washed with sodium chloride solution) were mixed for 30 minutes at 37° C. Thereafter the mixture was centrifuged and the optical density was determined at 540 nm.
a) 100 μl sodium chloride solution+buffer+0% haemolysis
b) 900 μl water→100% haemolysis

[7] = pH 6.6, aqueous with cosolvent or surfactant or cyclodextrin

In the case of `COc1cc(N)c(Cl)cc1C(=O)NC1CCN(CCCOc2ccc(F)cc2)CC1OC` (stereo not shown) [Cisapride], the “R, ratio of saturation solubility with and without β-cyclodextrin derivative” value [1] is reported as 3.
Work on `C[C@@H]1C[C@H]2[C@@H]3CCC4=CC(=O)C=C[C@]4(C)[C@@]3(F)[C@@H](O)C[C@]2(C)[C@@]1(O)C(=O)CO` [Dexamethasone] yielded a solubility at 24 h (physchem; pH 6.6, aqueous buffer) of 83 µg/mL (≈ 0.211 mM) and a solubility at 24 h (physchem; [7]) of 14300 µg/mL (≈ 36.4 mM).
In the case of `CCOC(=O)c1cncn1[C@H](C)c1ccccc1` [Etomidate], the “R, ratio of saturation solubility with and without β-cyclodextrin derivative” value [2] is reported as 8.5.
In the case of `COC(=O)Nc1nc2cc(C(=O)c3ccc(F)cc3)ccc2[nH]1` [Flubendazole], the “R, ratio of saturation solubility with and without β-cyclodextrin derivative” value [1] is reported as 30.
In the case of `Fc1ccc(C(c2ccc(F)cc2)N2CCN(C/C=C/c3ccccc3)CC2)cc1` [Flunarizine], the “R, ratio of saturation solubility with and without β-cyclodextrin derivative” value [1] is reported as 18.
For `COc1ccc2c(c1)c(CC(=O)O)c(C)n2C(=O)c1ccc(Cl)cc1` [Indometacine], the solubility at 24 h (physchem; pH 6.6, aqueous buffer) was 190 µg/mL (≈ 0.531 mM), the solubility at 24 h (physchem; [7]) was 5720 µg/mL (≈ 16 mM) and the “Ratio S1:S2” value (physchem) was 1:30.1. For the same molecule, the “Increase of water solubility with the 2,6-di-O-methyl derivative of β-cyclodextrin” value [3] was 20.4 fold, the Indometacin content ([4]; A: saturated solution in phosphate buffer, 0 weeks) was 100.1% and the Indometacin content ([4]; A: saturated solution in phosphate buffer, 2 weeks) was 91.2%. It also gave an Indometacin content ([4]; A: saturated solution in phosphate buffer, 4 weeks) of 79.1%, an Indometacin content ([4]; A: saturated solution in phosphate buffer, 6 weeks) of 69.8% and an Indometacin content ([4]; A: saturated solution in phosphate buffer, 8 weeks) of 64.8%. For the same molecule, the Indometacin content ([4]; B: with hydroxyethyl-β-cyclodextrin (MS 0.43) in phosphate buffer, 0 weeks) was 99.7%, the Indometacin content ([4]; B: with hydroxyethyl-β-cyclodextrin (MS 0.43) in phosphate buffer, 2 weeks) was 99.9% and the Indometacin content ([4]; B: with hydroxyethyl-β-cyclodextrin (MS 0.43) in phosphate buffer, 4 weeks) was 98.1%. For the same molecule, the Indometacin content ([4]; B: with hydroxyethyl-β-cyclodextrin (MS 0.43) in phosphate buffer, 6 weeks) was 98.6%, the Indometacin content ([4]; B: with hydroxyethyl-β-cyclodextrin (MS 0.43) in phosphate buffer, 8 weeks) was 98.4% and the “Concentration of saturated indometacin solution in phosphate buffer solution” value ([4]; phosphate buffer solution, no cyclodextrin) was 210 µg/mL.
For `CCC(C)n1ncn(-c2ccc(N3CCN(c4ccc(OCC5COC(Cn6cncn6)(c6ccc(Cl)cc6Cl)O5)cc4)CC3)cc2)c1=O` (stereo not shown) [Itraconazole], the “R, ratio of saturation solubility with and without β-cyclodextrin derivative” value ([1]; pH 2.5) was 75 and the “R, ratio of saturation solubility with and without β-cyclodextrin derivative” value ([1]; pH 5) was 96.
In the case of `CC(=O)N1CCN(c2ccc(OCC3COC(Cn4ccnc4)(c4ccc(Cl)cc4Cl)O3)cc2)CC1` (stereo not shown) [Ketoconazole], the “R, ratio of saturation solubility with and without β-cyclodextrin derivative” value [1] is reported as 85.
In the case of `C[C@@H]1CN([C@H]2CC[C@](C#N)(c3ccc(F)cc3)CC2)CC[C@]1(C(=O)O)c1ccccc1` [Levocabastine], the “R, ratio of saturation solubility with and without β-cyclodextrin derivative” value ([1]; pH 7.4) is reported as 8 and the “R, ratio of saturation solubility with and without β-cyclodextrin derivative” value ([1]; pH 9.5) is reported as 81.
For `CN(C)C(=O)C(CCN1CCC(O)(c2ccc(Cl)cc2)CC1)(c1ccccc1)c1ccccc1` [Loperamide], the “R, ratio of saturation solubility with and without β-cyclodextrin derivative” value [2] was 62.
In the case of `CC(=O)[C@H]1CC[C@H]2[C@@H]3CCC4=CC(=O)CC[C@]4(C)[C@H]3CC[C@]12C` [Progesterone], the solubility at 24 h (physchem; pH 6.6, aqueous buffer) is reported as 7.1 µg/mL (≈ 0.0226 mM), the solubility at 24 h (physchem; [7]) is reported as 7690 µg/mL (≈ 24.5 mM) and the “Ratio S1:S2” value (physchem) is reported as 1:1083.0.
For `CCOC(=O)Nc1ccc(SC[C@@H]2CO[C@@](Cn3ccnc3)(c3ccc(Cl)cc3Cl)O2)cc1` [Tubulazole], the “R, ratio of saturation solubility with and without β-cyclodextrin derivative” value [2] was 43.
With `CC(=O)O[C@]1(C(C)=O)CC[C@H]2[C@@H]3C[C@H](C)C4=CC(=O)CC[C@]4(C)[C@H]3CC[C@@]21C` [medroxyprogesterone acetate] the “Dissolution rate, times higher than tablet without β-cyclodextrin ether” value [5] was 21 times.
For `OC[C@H]1O[C@@H]2O[C@H]3[C@H](O)[C@@H](O)[C@@H](O[C@H]4[C@H](O)[C@@H](O)[C@@H](O[C@H]5[C@H](O)[C@@H](O)[C@@H](O[C@H]6[C@H](O)[C@@H](O)[C@@H](O[C@H]7[C@H](O)[C@@H](O)[C@@H](O[C@H]8[C@H](O)[C@@H](O)[C@@H](O[C@H]1[C@H](O)[C@H]2O)O[C@@H]8CO)O[C@@H]7CO)O[C@@H]6CO)O[C@@H]5CO)O[C@@H]4CO)O[C@@H]3CO` [β-cyclodextrin], the “LD50 in rats (i.v.)” value (rats) is given as 453 mg/kg bodyweight and the Water solubility [6] is given as 1.8 g/100 ml.
In the case of “dimethyl-β-cyclodextrin [dimethyl-β-cyclodextrin (DS 2.0)]”, the “LD50 in rats (i.v.)” value (rats) is reported as 200-207 mg/kg bodyweight, the “C50%, concentration at which 50% haemolysis occurred” value (human red blood cells) is reported as 0.33% and the “C100%, concentration at which 100% haemolysis occurred” value (human red blood cells) is reported as 0.5%.
